Values after ≈ are worked out from the molar mass of the structure shown.
Assay: physchem
Details: thermodynamic from solid
Experimental: To increase the solubility of the low-solubility active ingredients, 40 ml of a 15% polymer solution (in DI water) were prepared. […] If the added active ingredient dissolved, further active ingredient was added, to supersaturation, followed by stirring for a further 72 hours. The resulting suspension was filtered through a 0.45 μm membrane filter and the dissolved fraction of active ingredient was determined by means of UV/Vis spectroscopy. The same method was also carried for the active ingredients alone, in order to determine the solubility of the pure active ingredient and to be able to determine the improvement through salt formation. For comparison, the solubility in 0.1 normal HCl as well was ascertained, representing the solubility of the hydrochloride salt of the corresponding base.

SMILES	solubility thermodynamic at 72 h (simulated gastric fluid) [µg/mL]	solubility thermodynamic at 72 h (water) [µg/mL]
CN(C)C(=O)C(CCN1CCC(O)(c2ccc(Cl)cc2)CC1)(c1ccccc1)c1ccccc1 [Loperamide, loperamide]	200 (≈ 419 µM)	70 (≈ 147 µM)
NC(N)=Nc1nc(CSCCC(N)=NS(N)(=O)=O)cs1 [Famotidine, famotidine]	32100 (≈ 95100 µM)	1000 (≈ 2960 µM)

From patent US20150038668A1, “Branched Polyesters Based On Citric Acid, Their Preparation And Use” (BASF SE, priority 2010, published 2015)
